Experimental data: patent US8501772B2, “3,8-diaminotetrahydroquinoline derivative” (Zeria Pharmaceutical Co., Ltd., priority 2008, dated 2013)
Where a name gives a salt, the structure may show the parent alone. Blank lines part the entries; values can stand above or below the molecule they belong to.

Biological target: T1, human GHS-R1a (Homo sapiens, UniProt Q92847)
T1 construct: expressed in transfected cells
Experiment: Agonistic activity by use of a cell line stably expressing human GHS-R1a (intracellular calcium increase)
Assay type: cell-based
Conditions: hGHS-R1a/CHO cells, percent increase in intracellular calcium vs 100 nM ghrelin; read-out: GHS-R agonistic activity (EC50: nM)
Experimental: CHO-K1 cells were transfected with human GHS-R1a genes, to thereby provide cells stably expressing GHS-R1a (hGHS-R1a/CHO), and the agonistic activity of each compound was evaluated by use of the cells based on percent increase in intracellular calcium as an index.
The hGHS-R1a/CHO cells were inoculated at 6×10^4 cells/well in a 96-well plate (Clear bottom/Black plate, product of Corning), and cultured in Ham's F12 medium containing 10% fetal bovine serum at 37° C. and 5% CO2 for 18 hours. After culture, the medium was removed, and then the hGHS-R1a/CHO cells were cultured for two hours in a Hanks' balanced salt solution/HEPES (HBSS/HEPES, 100 μL) containing a calcium fluorescent indicator (4 μM Fluo-3AM, product of Dojin), 2 mM Probenecid, 0.1% Pluronic F-127, and 0.1% BSA, whereby the indicator was incorporated into the cells. After washing the cells, HBSS/HEPES (175 μL/well) containing 2 mM Probenecid and 0.1% BSA was added to the plate, and the fluorescence before and after addition of each test compound was determined by means of FLEXstation (Ex: 485 nm, Em: 525 nm, product of Molecular Devices). Each test compound was multi-fold diluted with dimethyl sulfoxide and then diluted with HBSS/HEPES containing 2 mM Probenecid, 0.04% Pluronic F-127, and 0.1% BSA, to thereby attain a final concentration of interest. The thus-diluted solution (25 μL/well) was added to the wells.
Agonistic activity(%)=(A−B)/(C−D)×100
A: Fluorescence intensity after addition of test compound
B: Fluorescence intensity before addition of test compound
C: Fluorescence intensity after addition of 100 nM ghrelin
D: Fluorescence intensity before addition of ghrelin

T1 sequence (Q92847 whole entry): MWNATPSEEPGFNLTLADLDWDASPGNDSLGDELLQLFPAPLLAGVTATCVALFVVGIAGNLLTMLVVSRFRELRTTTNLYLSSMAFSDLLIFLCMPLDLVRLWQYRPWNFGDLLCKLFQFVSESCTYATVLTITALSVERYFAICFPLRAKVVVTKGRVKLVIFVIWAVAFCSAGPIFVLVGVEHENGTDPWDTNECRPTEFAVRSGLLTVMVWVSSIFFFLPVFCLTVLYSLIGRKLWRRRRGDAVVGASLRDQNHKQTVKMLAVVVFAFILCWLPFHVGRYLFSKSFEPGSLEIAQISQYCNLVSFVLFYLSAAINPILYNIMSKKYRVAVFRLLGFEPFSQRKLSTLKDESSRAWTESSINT

Structure (SMILES): CC(C)C[C@@H](NC(=O)C(C)(C)N)C(=O)NC1Cc2cccc(N3CCCC3=O)c2N(Cc2ccsc2)C1=O (stereo partly drawn) [Example 34k, (2R)-2-(2-amino-2-methylpropanamido)-4-methyl-N-[2-oxo-8-(2-oxopyrrolidin-1-yl)-1-(thiophen-3-ylmethyl)-1,2,3,4-tetrahydroquinolin-3-yl]pentanamide(R)-(−)-mandelate]
EC50: 0.47 nM

Structure (SMILES): CC(C)C[C@@H](NC(=O)C(C)(C)N)C(=O)NC1Cc2cccc(N3CCCC3=O)c2N(Cc2ccsc2)C1=O (stereo partly drawn) [Example 34l, (2R)-2-(2-amino-2-methylpropanamido)-4-methyl-N-[2-oxo-8-(2-oxopyrrolidin-1-yl)-1-(thiophen-3-ylmethyl)-1,2,3,4-tetrahydroquinolin-3-yl]pentanamide(S)-(+)-mandelate]
EC50: 0.37 nM

Structure (SMILES): CC(C)C[C@@H](NC(=O)C(C)(C)N)C(=O)NC1Cc2cccc(N3CCCC3=O)c2N(Cc2ccccc2)C1=O (stereo partly drawn) [Example 35, (2R)-2-(2-Amino-2-methylpropanamido)-N-[1-benzyl-2-oxo-8-(2-oxopyrrolidin-1-yl)-1,2,3,4-tetrahydroquinolin-3-yl]-4-methylpentanamide hydrochloride]
EC50: 0.9 nM

Structure (SMILES): CC(C)C[C@@H](NC(=O)C(C)(C)N)C(=O)NC1Cc2cccc(N3CCCCC3=O)c2N(Cc2ccccc2)C1=O (stereo partly drawn) [Example 36, (2R)-2-(2-Amino-2-methylpropanamido)-N-[1-benzyl-2-oxo-8-(2-oxopiperidin-1-yl)-1,2,3,4-tetrahydroquinolin-3-yl]-4-methylpentanamide hydrochloride]
EC50: 1.1 nM

Structure (SMILES): CC(C)C[C@@H](NC(=O)C(C)(C)N)C(=O)NC1Cc2cccc(N3C(=O)CCC3=O)c2N(Cc2ccccc2)C1=O (stereo partly drawn) [Example 37, (2R)-2-(2-Amino-2-methylpropanamido)-N-[1-benzyl-8-(2,5-dioxopyrrolidin-1-yl)-2-oxo-1,2,3,4-tetrahydroquinolin-3-yl]-4-methylpentanamide hydrochloride]
EC50: 1 nM

Structure (SMILES): CC(C)(N)C(=O)N[C@H](Cc1c[nH]c2ccccc12)C(=O)NC1Cc2cccc(N3CCCC3=O)c2N(Cc2ccccc2)C1=O (stereo partly drawn) [Example 38, 2-Amino-N-[(2R)-1-[1-benzyl-2-oxo-8-(2-oxopyrrolidin-1-yl)-1,2,3,4-tetrahydroquinolin-3-ylamino]-3-(1H-indol-3-yl)-1-oxopropan-2-yl]-2-methylpropanamide hydrochloride]
EC50: 0.1 nM

Structure (SMILES): CCN(CC)c1cccc2c1N(Cc1ccccn1)C(=O)C(NC(=O)[C@@H](CC(C)C)NC(=O)[C@H](N)Cc1ccc(O)cc1)C2 (stereo partly drawn) [Example 39, (2R)-2-((R)-2-Amino-3-(4-hydroxyphenyl)propanamido)-N-(8-(diethylamino)-2-oxo-1-(pyridin-2-ylmethyl)-1,2,3,4-tetrahydroquinolin-3-yl)-4-methylpentanamide hydrochloride]
EC50: 12.9 nM

Structure (SMILES): CC(=O)Nc1cccc2c1N(Cc1ccccn1)C(=O)C(NC(=O)[C@@H](CC(C)C)NC(=O)C(C)(C)N)C2 (stereo partly drawn) [Example 40, (2R)—N-(8-Acetamido-2-oxo-1-(pyridin-2-ylmethyl)-1,2,3,4-tetrahydroquinolin-3-yl)-2-(2-amino-2-methylpropanamido)-4-methylpentanamide]
EC50: 80 nM

Structure (SMILES): CN(C)c1cccc2c1N(Cc1ccccn1)C(=O)C(NC(=O)[C@H](NC(=O)C(C)(C)N)c1ccccc1)C2 (stereo partly drawn) [Example 41, 2-Amino-N-((1R)-2-(8-(dimethylamino)-2-oxo-1-(pyridin-2-ylmethyl)-1,2,3,4-tetrahydroquinolin-3-ylamino)-2-oxo-1-phenylethyl)-2-methylpropanamide hydrochloride]
EC50: 11.3 nM

Structure (SMILES): CCN(CC)c1cccc2c1N(Cc1ccccn1)C(=O)C(NC(=O)[C@@H](CC(C)C)NC(=O)CC(C)(C)N)C2 (stereo partly drawn) [Example 47, (2R)-2-(3-Amino-3-methylbutanamido)-N-[8-(diethylamino)-2-oxo-1-(pyridin-2-ylmethyl)-1,2,3,4-tetrahydroquinolin-3-yl]-4-methylpentanamide hydrochloride]
EC50: 18.2 nM

Structure (SMILES): CC(C)C[C@@H](NC(=O)C(C)(C)N)C(=O)NC1Cc2cccc(N3C(=O)CCC3O)c2N(Cc2ccsc2)C1=O (stereo partly drawn) [Example 66, (2R)-2-(2-amino-2-methylpropanamido)-N-(8-(2-hydroxy-5-oxopyrrolidin-1-yl)-2-oxo-1-(thiophen-3-ylmethyl)-1,2,3,4-tetrahydroquinolin-3-yl)-4-methylpentanamide]
EC50: 0.45 nM

Further lines, results first:

EC50: 2.75 nM
Structure (SMILES): CC(C)C[C@@H](NC(=O)[C@@H](C)N)C(=O)NC1Cc2cccc(N3CCCC3=O)c2N(Cc2ccsc2)C1=O (stereo partly drawn) [Example 34g, (2R)-2-((R)-2-aminopropanamido)-4-methyl-N-[2-oxo-8-(2-oxopyrrolidin-1-yl)-1-(thiophen-3-ylmethyl)-1,2,3,4-tetrahydroquinolin-3-yl]pentanamide hydrochloride]

EC50: 0.74 nM
Structure (SMILES): CC[C@@](C)(N)C(=O)N[C@H](CC(C)C)C(=O)NC1Cc2cccc(N3CCCC3=O)c2N(Cc2ccsc2)C1=O (stereo partly drawn) [Example 34h, (2R)-2-((R)-2-amino-2-methylbutanamido)-4-methyl-N-[2-oxo-8-(2-oxopyrrolidin-1-yl)-1-(thiophen-3-ylmethyl)-1,2,3,4-tetrahydroquinolin-3-yl]pentanamide hydrochloride]

EC50: 0.2 nM
Structure (SMILES): CC[C@@](C)(N)C(=O)N[C@H](Cc1cn(C)c2ccccc12)C(=O)NC1Cc2cccc(N3CCCC3=O)c2N(Cc2ccsc2)C1=O (stereo partly drawn) [Example 34i, (2R)-2-amino-2-methyl-N-[(2R)-3-(1-methyl-1H-indol-3-yl)-1-oxo-1-[2-oxo-8-(2-oxopyrrolidin-1-yl)-1-(thiophen-3-ylmethyl)-1,2,3,4-tetrahydroquinolin-3-ylamino]propan-2-yl]butanamide hydrochloride]

EC50: 1.5 nM
Structure (SMILES): CC(C)C[C@@H](NC(=O)C(C)(C)N)C(=O)NC1Cc2cccc(N3CCCC3=O)c2N(Cc2cccs2)C1=O (stereo partly drawn) [Example 34m, (2R)-2-(2-amino-2-methylpropanamido)-4-methyl-N-[2-oxo-8-(2-oxopyrrolidin-1-yl)-1-(thiophen-2-ylmethyl)-1,2,3,4-tetrahydroquinolin-3-yl]pentanamide hydrochloride]
